Key:
Type in all cases: in vivo
[1] = tested on: Monocotyledonous and dicotyledonous test plants; experiment: Example B1 herbicidal action, application pre-emergence (Table B1b); settings: 250 g/ha, evaluated after 4 weeks
Procedure, shortened: (§1)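 Compounds sprayed as aqueous solution from acetone/Emulsogen EL/NMP/dipropylene glycol monomethyl ether/X-77 formulation onto soil right after sowing (pre-emergence) or onto 8–9-day plants (post-emergence); greenhouse-grown. Damage scored 0 (none) to 10 (total) after 4 weeks pre- or 3 weeks post-emergence.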

[2] = tested on: Monocotyledonous and dicotyledonous test plants; experiment: Example B2 herbicidal action, application pre-emergence, 96-cell seed trays (Table B2b); settings: 1000 g/ha
Description: Monocotyledonous and dicotyledonous test plants were sown in sterilised standard soil in seed trays each having 96 cells. After one day (pre-emergence) or after 8 to 9 days cultivation (post-emergence) under controlled conditions in a climatic chamber (cultivation at 17/23° C.; 13 hours light; 50-60% humidity; after application at 19/24° C.), the plants were treated with an aqueous spray solution of 1000 mg/l of the active ingredient used (rate of application: […]; incl. 10% DMSO as solvent). The plants were grown on in the climatic chamber until the test was evaluated (10 total damage to plant, 0=no damage to plant) after 9 or 13 days.

[3] = tested on: Monocotyledonous and dicotyledonous test plants; experiment: Example B1 herbicidal action, application post-emergence (Table B1a); settings: 250 g/ha, evaluated after 3 weeks, scale 0-10
Procedure, shortened: as §1

Structure (SMILES) | herbicidal action (damage rating 0-10), Amaranthus [1] | herbicidal action (damage rating 0-10), Digitaria [1] | herbicidal action (damage rating 0-10), Panicum [1] | herbicidal action (damage rating 0-10), Setaria [1] | herbicidal action (damage rating 0-10), Sida [1] | herbicidal action (damage rating 0-10), Agrostis [2] | herbicidal action (damage rating 0-10), Digitaria [2] | herbicidal action (damage rating 0-10), Poa [2] | herbicidal action (damage rating 0-10), Setaria [2] | herbicidal damage rating, Digitaria [3] | herbicidal damage rating, Panicum [3] | herbicidal damage rating, Setaria [3] | herbicidal damage rating, Abutilon [3] | herbicidal damage rating, Amaranthus [3] | herbicidal damage rating, Sida [3]
CC1(C)CC([S+]([O-])C(Cl)c2c(F)cccc2F)=NO1 (mixture of isomers) [1.24] | 8 | 8 | 10 | 7 | 4 | 10 | 10 | 10 | 9 | 6 | 6 | 6 |  |  | 
CC1(C)CC(S(=O)(=O)C(C)(Cl)c2c(F)cccc2F)=NO1 (stereo not shown) [1.15] | 10 | 9 | 10 | 8 | 0 | 2 | 9 | 10 | 9 |  |  |  |  |  | 
CC1(C)CC(S(=O)(=O)C(F)(F)c2c(F)cccc2F)=NO1 [1.20] | 10 | 10 | 10 | 10 | 9 | 10 | 10 | 10 | 10 | 6 | 0 | 6 | 7 | 3 | 5
Cc1cccc(C(CC=C(F)F)S(=O)(=O)C2=NOC(C)(C)C2)c1 (stereo not shown) [1.29] | 2 | 3 | 7 | 7 | 0 | 10 | 9 | 8 | 4 |  |  |  |  |  | 
CC1(C)CC(S(=O)(=O)C(C)(Br)c2c(F)cccc2F)=NO1 (stereo not shown) [1.37] | 0 | 9 | 9 | 9 | 5 | 10 | 9 | 10 | 9 |  |  |  |  |  | 
CC1(C)CC(S(=O)(=O)C(c2c(F)cccc2F)S(=O)(=O)Cc2ccccc2)=NO1 (stereo not shown) [1.39] | 3 | 7 | 7 | 3 | 0 | 10 | 5 | 10 | 3 |  |  |  |  |  | 
CC1(C)CC(S(=O)(=O)C2(c3c(F)cccc3F)CC2[N+](=O)[O-])=NO1 (stereo not shown) [1.48] |  |  |  |  |  | 10 | 9 | 10 | 8 |  |  |  |  |  | 
COCC(=O)OC(COC)=C(c1c(F)cccc1F)S(=O)(=O)C1=NOC(C)(C)C1 [1.100] |  |  |  |  |  | 5 | 7 | 9 | 3 |  |  |  |  |  | 
Cn1nc(C(F)(F)F)c(C(F)S(=O)(=O)C2=NOC(C)(C)C2)c1Cl (stereo not shown) [2.02] |  |  |  |  |  | 10 | 9 | 10 | 10 |  |  |  |  |  | 
CC1(C)CC(S(=O)(=O)C2(c3c(F)cccc3F)CC2)=NO1 [Compound No. 1.01, 3-[1-(2,6-difluoro-phenyl)-cyclopropanesulfonyl]-5,5-dimethyl-4,5-dihydroisoxazole] | 2 | 7 | 8 | 8 | 0 | 10 | 9 | 10 | 9 |  |  |  |  |  | 
CCOC(=O)CCC(c1c(F)cccc1F)S(=O)(=O)C1=NOC(C)(C)C1 (stereo not shown) [Compound No. 1.08, 4-(2,6-difluoro-phenyl)-4-(5,5-dimethyl-4,5-dihydroisoxazole-3-sulfonyl)-butyric acid ethyl ester] |  |  |  |  |  | 7 | 8 | 9 | 3 |  |  |  |  |  | 
CC1(C)CC(S(=O)(=O)C2(c3c(F)cccc3F)CC2(Cl)Cl)=NO1 (stereo not shown) [Compound No. 1.45, 3-[2,2-dichloro-1-(2,6-difluoro-phenyl)-cyclopropanesulfonyl]-5,5-dimethyl-4,5-dihydroisoxazole] |  |  |  |  |  | 7 | 8 | 10 | 6 |  |  |  |  |  | 
COCC(=O)C(c1c(F)cccc1F)S(=O)(=O)C1=NOC(C)(C)C1 (stereo not shown) [Compound No. 1.59] |  |  |  |  |  | 9 | 8 | 10 | 9 |  |  |  |  |  | 
CC1(C)CC(S(=O)(=O)C(F)(Br)c2c(F)cccc2F)=NO1 (stereo not shown) [Compound No. 1.63, 3-[bromo-(2,6-difluorophenyl)-fluoro-methanesulfonyl]-5,5-dimethyl-4,5-dihydroisoxazole] | 10 | 10 | 10 | 10 | 8 |  |  |  |  | 7 | 7 | 7 | 4 | 3 | 4
CC1(C)CC(S(=O)(=O)C(c2c(F)cccc2F)C(F)(F)F)=NO1 (stereo not shown) [Compound No. 1.113, 3-[1-(2,6-difluoro-phenyl)-2,2,2-trifluoro-ethanesulfonyl]-5,5-dimethyl-4,5-dihydroisoxazole] | 8 | 9 | 10 | 10 | 0 |  |  |  |  | 8 | 3 | 7 | 2 | 0 | 4

Reference: patent US8680290B2, “Isoxazoline derivatives and their use as herbicides” (Syngenta Limited, priority 2004, dated 2014)
